Key:
Type in all cases: biochemical
[1] = biological target: T1, PaKEOPS (Pcc1-Kae1-Bud32-Cgi121) (Pyrococcus abyssi, UniProt Q9UYB9); test: TLC of radiolabelled ATP hydrolysis; details: 100 uM ATP, 50 °C, 30 min, with or without tRNA; reconstituted complex; labelled compound
T1 construct: recombinant from E. coli Rosetta2, His-tag purification; whole complex or reconstituted from Pcc1-Kae1 plus Bud32-Cgi121; homodimer of the heterotetramer; with tRNA N6-adenosine threonylcarbamoyltransferase; KEOPS complex Pcc1-like subunit; Regulatory protein Cgi121

[2] = biological target: T2, Bud32-Cgi121 binary complex (Pyrococcus abyssi, UniProt Q9UYB9); test: autophosphorylation with gamma-32P ATP, SDS-PAGE phosphorimaging; details: 25 uM cold ATP, 55 °C, 30 min; no ATPase activity in TLC assay; labelled compound
T2 construct: recombinant from E. coli Rosetta2, His-tag purification; binary complex, monomeric form; with Regulatory protein Cgi121
T2 sequence (Q9UYB9 1-220): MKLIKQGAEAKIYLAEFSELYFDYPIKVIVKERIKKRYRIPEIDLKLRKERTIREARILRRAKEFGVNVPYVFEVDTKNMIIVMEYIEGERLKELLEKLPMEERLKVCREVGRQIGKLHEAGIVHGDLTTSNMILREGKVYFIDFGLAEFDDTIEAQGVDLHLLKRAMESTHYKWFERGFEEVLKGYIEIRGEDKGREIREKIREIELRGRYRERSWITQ
T2 sequence (Q9UZ62 1-171 partner): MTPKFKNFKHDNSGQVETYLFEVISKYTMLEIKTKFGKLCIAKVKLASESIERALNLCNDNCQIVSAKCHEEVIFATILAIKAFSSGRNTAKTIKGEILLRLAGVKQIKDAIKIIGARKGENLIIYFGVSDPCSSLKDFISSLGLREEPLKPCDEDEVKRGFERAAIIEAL

[3] = biological target: T3, Kae1-Bud32-Cgi121 ternary complex (Pyrococcus abyssi, UniProt Q9UYB9); test: TLC of radiolabelled ATP hydrolysis; details: 100 uM ATP, 50 °C, 30 min; independent of tRNA; labelled compound
T3 construct: recombinant from E. coli Rosetta2, His-tag purification; ternary complex, monomeric form; with tRNA N6-adenosine threonylcarbamoyltransferase; Regulatory protein Cgi121

[4] = biological target: T1, PaKEOPS (Pcc1-Kae1-Bud32-Cgi121); test: TLC of radiolabelled ATP hydrolysis; details: 100 uM ATP, 50 °C, 30 min, with or without tRNA; reconstituted complex; labelled compound; remark: listed apart in the source
[5] = biological target: T1, PaKEOPS (Pcc1-Kae1-Bud32-Cgi121); test: TLC of radiolabelled ATP hydrolysis; details: 100 uM ATP, 50 °C, 30 min; stimulated by tRNA; labelled compound
[6] = biological target: T4, PaKEOPS (Pcc1-Kae1-Bud32-Cgi121) (Pyrococcus abyssi, UniProt Q9UYB9, D127R); test: TLC of radiolabelled ATP hydrolysis; details: 100 uM ATP, 50 °C, 30 min, with or without tRNA; reconstituted complex; labelled compound
T4 construct: recombinant from E. coli Rosetta2, His-tag purification; whole complex or reconstituted from Pcc1-Kae1 plus Bud32-Cgi121; homodimer of the heterotetramer; with tRNA N6-adenosine threonylcarbamoyltransferase; KEOPS complex Pcc1-like subunit; Regulatory protein Cgi121

[7] = biological target: T5, Kae1-Bud32 binary complex (Pyrococcus abyssi, UniProt Q9UYB9); test: TLC of radiolabelled ATP hydrolysis; details: 100 uM ATP, 50 °C, 30 min; independent of tRNA; labelled compound
T5 construct: recombinant from E. coli Rosetta2, His-tag purification; binary complex, monomeric form; with tRNA N6-adenosine threonylcarbamoyltransferase

## Nc1ncnc2c1ncn2[C@@H]1O[C@H](COP(=O)(O)OP(=O)(O)OP(=O)(O)O)[C@@H](O)[C@H]1O [ATP]
[1]
  wild-type ATPase activity: PaKEOPS (Kae1^D159A) behaved in the same manner as the wild-type PaKEOPS
[2]
  autophosphorylation: When the reaction mixture contained only Bud32–Cgi121, a significant autophosphorylation activity of Bud32 was observed
[3]
  ATPase activity: we recorded a significant ATPase activity that was independent of tRNA
[4]
  normal ATPase activity: the reconstituted mutant PaKEOPS exhibited normal ATPase activity
[5]
  ATPase activity: the ATPase activity of the whole PaKEOPS complex is stimulated by the presence of tRNA
[6]
  ATPase activity totally lost: PaKEOPS (Bud32^D127R) totally lost the ATPase activity
[7]
  ATPase activity: binary complex Kae1–Bud32 exhibited a significant ATPase activity

Reference: paper PMC3814370, “Functional assignment of KEOPS/EKC complex subunits in the biosynthesis of the universal t^6A tRNA modification” (Nucleic Acids Research, 2013)
